Where a SMILES comes first, the peptide text is derived from it. Bridges are numbered along the chain shown (N, C = ends). [ ]: non-standard residue; d: D form. Tyr(3-F) = N[C@@H](Cc1ccc(O)c(F)c1)C(=O)O; Nle = CCCC[C@H](N)C(=O)O; Orn = NCCC[C@H](N)C(=O)O
Experiments:
guinea pigs = assay: In vivo bronchodilator activity by tracheal instillation against histamine challenge; set-up: species or system guinea pig; settings: anesthetized male guinea pigs, inhibition of histamine (i.v.)-induced rise in tracheal pressure
In short: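 Urethane-anaesthetised male Hartley guinea pigs (400-600 g) received compound in water by intratracheal instillation, then were paralysed, ventilated and challenged with histamine […] i.v. Tracheal pressure change gave % inhibition (≥3 animals/group); ED50 from log dose-response; duration as time until inhibition fell to 40%.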

[1] = test system: guinea pig tracheal smooth muscle; assay: Tracheal relaxant activity of VIP analogs on isolated guinea pig tracheal rings; format: cell-based; settings: cumulative concentration response, relaxation as % of maximum response to VIP (10^-6 M=100%), three tissues pooled, linear regression
In short: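 Male guinea pig tracheal rings under 1.5 g resting tension in Krebs at 37° C, 95% O2/5% CO2, isometric tension. Cumulative concentration-response curves; relaxation as % of response to 10^-6 M VIP added at end; three tissues pooled, EC50 by linear regression.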

| Compound | EC50 [1] [nM] | Bronchodilator activity of VIP analogs in guinea pigs, ED50 (guinea pigs) [μg] |
| --- | --- | --- |
| CCCC[C@H](NC(=O)[C@H](CCC(N)=O)NC(=O)[C@H](CCCCN)NC(=O)[C@H](CCCNC(=N)N)NC(=O)[C@H](CC(C)C)NC(=O)[C@H](CCCN)NC(=O)[C@@H](NC(=O)[C@H](Cc1ccc(O)cc1)NC(=O)[C@H](CC(N)=O)NC(=O)[C@H](CCC(=O)O)NC(=O)[C@@H](NC(=O)[C@H](Cc1ccccc1)NC(=O)[C@@H](NC(=O)[C@H](C)NC(=O)[C@H](CC(=O)O)NC(=O)[C@H](CO)NC(=O)[C@H](Cc1c[nH]cn1)NC(C)=O)C(C)C)[C@@H](C)O)[C@@H](C)O)C(=O)N[C@@H](C)C(=O)N[C@H](C(=O)N[C@@H](CCCCN)C(=O)N[C@H]1CCCCNC(=O)C[C@@H](C(=O)N[C@H](C(=O)N[C@@H](CC(C)C)C(=O)N[C@H](C(N)=O)[C@@H](C)O)C(C)C)NC(=O)[C@H](CC(N)=O)NC(=O)[C@H](CC(C)C)NC(=O)[C@H](Cc2ccc(O)cc2)NC1=O)C(C)C [SEQ ID NO:31, Ac-[Glu^8,Orn^12,Nle^17,Asp^25,Val^26,Thr^28]-VIP cyclo (Lys^21 →Asp^25)] (Ac-HSDAVFTENYT[Orn]LRKQ[Nle]AVKKYLNDVLT-NH2; lactam 21-25) | 2.2 | 0.19 |
| CC[C@H](C)[C@H](NC(=O)[C@H](CO)NC(=O)[C@H](CC(N)=O)NC(=O)[C@H](CC(C)C)NC(=O)[C@H](Cc1ccc(O)cc1)NC(=O)[C@H](CCCCN)NC(=O)[C@H](CCCCN)NC(=O)[C@@H](NC(=O)[C@H](C)NC(=O)[C@H](CCSC)NC(=O)[C@H](CCC(N)=O)NC(=O)[C@H](CCCCN)NC(=O)[C@H](CCCNC(=N)N)NC(=O)[C@H](CC(C)C)NC(=O)[C@H](CCCNC(=N)N)NC(=O)[C@@H](NC(=O)[C@H](Cc1ccc(O)cc1)NC(=O)[C@H](CC(N)=O)NC(=O)[C@H](CC(=O)O)NC(=O)[C@@H](NC(=O)[C@H](Cc1ccccc1)NC(=O)[C@@H](NC(=O)[C@H](C)NC(=O)[C@H](CC(=O)O)NC(=O)[C@H](CO)NC(=O)[C@@H](N)Cc1c[nH]cn1)C(C)C)[C@@H](C)O)[C@@H](C)O)C(C)C)C(=O)N[C@@H](CC(C)C)C(=O)N[C@@H](CC(N)=O)C(N)=O [VIP, Vasoactive intestinal peptide, reference compound] | 10 | 7.3 |
| CCCC[C@H](NC(=O)[C@H](CCC(N)=O)NC(=O)[C@H](CCCCN)NC(=O)[C@H](CCCNC(=N)N)NC(=O)[C@H](CC(C)C)NC(=O)[C@H](CCCCN)NC(=O)[C@@H](NC(=O)[C@H](Cc1ccc(O)cc1)NC(=O)[C@H](CC(N)=O)NC(=O)[C@H](CC(=O)O)NC(=O)[C@@H](NC(=O)[C@H](Cc1ccccc1)NC(=O)[C@@H](NC(=O)[C@H](C)NC(=O)[C@H](CC(=O)O)NC(=O)[C@H](C)NC(=O)[C@H](Cc1c[nH]cn1)NC(C)=O)C(C)C)[C@@H](C)O)[C@@H](C)O)C(=O)N[C@@H](C)C(=O)N[C@@H](C)C(=O)N[C@@H](CCCCN)C(=O)N[C@H]1CCCCNC(=O)C[C@@H](C(=O)N[C@H](C(=O)N[C@@H](CC(C)C)C(=O)N[C@H](C(N)=O)[C@@H](C)O)C(C)C)NC(=O)[C@H](CC(N)=O)NC(=O)[C@H](CC(C)C)NC(=O)[C@H](Cc2ccc(O)cc2)NC1=O [SEQ ID NO:33, Ac-[Ala^2,Lys^12,Nle^17,Ala^19,Asp^25,Val^26,Thr^28]-VIP cyclo (Lys^21 →Asp^25)] (Ac-HADAVFTDNYTKLRKQ[Nle]AAKKYLNDVLT-NH2; lactam 21-25) | 1.2 | 0.6 |
| CC(=O)N[C@@H](Cc1c[nH]cn1)C(=O)N[C@@H](CO)C(=O)N[C@@H](CC(=O)O)C(=O)N[C@@H](C)C(=O)N[C@H](C(=O)N[C@@H](Cc1ccccc1)C(=O)N[C@H](C(=O)N[C@@H](CCC(=O)O)C(=O)N[C@@H](CC(N)=O)C(=O)N[C@@H](Cc1ccc(O)cc1)C(=O)N[C@H](C(=O)N[C@@H](CCCCN)C(=O)N[C@@H](CC(C)C)C(=O)N[C@@H](CCCNC(=N)N)C(=O)N[C@@H](CCCCN)C(=O)N[C@@H](C)C(=O)N[C@@H](C)C(=O)N[C@@H](C)C(=O)N[C@@H](C)C(=O)N[C@@H](CCCCN)C(=O)N[C@H]1CCCCNC(=O)C[C@@H](C(=O)N[C@@H](CC(C)C)C(=O)N[C@@H](CCCCN)C(=O)N[C@@H](CCCCN)C(N)=O)NC(=O)[C@H](C)NC(=O)[C@H](CC(C)C)NC(=O)[C@H](Cc2ccc(O)cc2)NC1=O)[C@@H](C)O)[C@@H](C)O)C(C)C [SEQ ID NO:64, Ac-[Glu^8,Lys^12,Ala^16,17,19,Ala^24,Asp^25,Leu^26,Lys^27,28]-VIP cyclo (Lys^21 →Asp^25)] (Ac-HSDAVFTENYTKLRKAAAAKKYLADLKK-NH2; lactam 21-25) | 0.22 | 0.13 |

Continued by falling EC50 [1], values first:

| EC50 [1] [nM] | Compound | Bronchodilator activity of VIP analogs in guinea pigs, ED50 (guinea pigs) [μg] |
| --- | --- | --- |
| 3.1 | CCCC[C@H](NC(=O)[C@H](CCC(N)=O)NC(=O)[C@H](CCCCN)NC(=O)[C@H](CCCNC(=N)N)NC(=O)[C@H](CC(C)C)NC(=O)[C@H](CCCCN)NC(=O)[C@@H](NC(=O)[C@H](Cc1ccc(O)cc1)NC(=O)[C@H](CC(N)=O)NC(=O)[C@H](CC(=O)O)NC(=O)[C@@H](NC(=O)[C@H](Cc1ccccc1)NC(=O)[C@@H](NC(=O)[C@H](C)NC(=O)[C@H](CC(=O)O)NC(=O)[C@H](CO)NC(=O)[C@H](Cc1c[nH]cn1)NC(C)=O)C(C)C)[C@@H](C)O)[C@@H](C)O)C(=O)N[C@@H](C)C(=O)N[C@H](C(=O)N[C@@H](CCCCN)C(=O)N[C@H]1CCCCNC(=O)C[C@@H](C(=O)N[C@H](C(=O)N[C@@H](CC(C)C)C(=O)N[C@H](C(N)=O)[C@@H](C)O)C(C)C)NC(=O)[C@H](CC(N)=O)NC(=O)[C@H](CC(C)C)NC(=O)[C@H](Cc2ccc(O)cc2)NC1=O)C(C)C [SEQ ID NO:28, Ac-[Lys^12,Nle^17,Asp^25,Val^26,Thr^28]-VIP cyclo (Lys^21 →Asp^25)] (Ac-HSDAVFTDNYTKLRKQ[Nle]AVKKYLNDVLT-NH2; lactam 21-25) | 1.2 |
| 0.55 | CCCC[C@H](NC(=O)[C@H](CCC(N)=O)NC(=O)[C@H](CCCCN)NC(=O)[C@H](CCCNC(=N)N)NC(=O)[C@H](CC(C)C)NC(=O)[C@H](CCCCN)NC(=O)[C@@H](NC(=O)[C@H](Cc1ccc(O)cc1)NC(=O)[C@H](CC(N)=O)NC(=O)[C@H](CCC(=O)O)NC(=O)[C@@H](NC(=O)[C@H](Cc1ccccc1)NC(=O)[C@@H](NC(=O)[C@H](C)NC(=O)[C@H](CC(=O)O)NC(=O)[C@H](C)NC(=O)[C@H](Cc1c[nH]cn1)NC(C)=O)C(C)C)[C@@H](C)O)[C@@H](C)O)C(=O)N[C@@H](C)C(=O)N[C@@H](C)C(=O)N[C@@H](CCCCN)C(=O)N[C@H]1CCCCNC(=O)C[C@@H](C(=O)N[C@@H](CC(C)C)C(=O)N[C@@H](CCCCN)C(=O)N[C@@H](CCCCN)C(=O)N[C@@H](C)C(=O)N[C@@H](C)C(=O)N[C@@H](C)C(N)=O)NC(=O)[C@H](CC(N)=O)NC(=O)[C@H](CC(C)C)NC(=O)[C@H](Cc2ccc(O)cc2)NC1=O [SEQ ID NO:43, Ac-[Ala^2,Glu^8,Lys^12,Nle^17,Ala^19,Asp^25,Leu^26,Lys^27,28,Ala^29-31]-VIP cyclo (Lys^21 →Asp^25)] (Ac-HADAVFTENYTKLRKQ[Nle]AAKKYLNDLKKAAA-NH2; lactam 21-25) | 0.14 |
| 0.52 | CCCC[C@H](NC(=O)[C@H](CCC(N)=O)NC(=O)[C@H](CCCCN)NC(=O)[C@H](CCCNC(=N)N)NC(=O)[C@H](CC(C)C)NC(=O)[C@H](CCCCN)NC(=O)[C@@H](NC(=O)[C@H](Cc1ccc(O)cc1)NC(=O)[C@H](CC(N)=O)NC(=O)[C@H](CC(=O)O)NC(=O)[C@@H](NC(=O)[C@H](Cc1ccccc1)NC(=O)[C@@H](NC(=O)[C@H](C)NC(=O)[C@H](CC(=O)O)NC(=O)[C@H](CO)NC(=O)[C@H](Cc1c[nH]cn1)NC(C)=O)C(C)C)[C@@H](C)O)[C@@H](C)O)C(=O)N[C@@H](C)C(=O)N[C@@H](C)C(=O)N[C@@H](CCCCN)C(=O)N[C@H]1CCCCNC(=O)C[C@@H](C(=O)N[C@H](C(=O)N[C@@H](CC(C)C)C(=O)N[C@H](C(N)=O)[C@@H](C)O)C(C)C)NC(=O)[C@H](CC(N)=O)NC(=O)[C@H](CC(C)C)NC(=O)[C@H](Cc2ccc(O)c(F)c2)NC1=O [SEQ ID NO:56, Ac-[Lys^12,Nle^17,Ala^19,m-F-L-Tyr^22,Asp^25,Val^26,Thr^28]-VIP cyclo (Lys^21 →Asp^25)] (Ac-HSDAVFTDNYTKLRKQ[Nle]AAKK[Tyr(3-F)]LNDVLT-NH2; lactam 21-25) | 7.2 |
| 0.42 | CCCC[C@H](NC(=O)[C@H](CCC(N)=O)NC(=O)[C@H](CCCCN)NC(=O)[C@H](CCCNC(=N)N)NC(=O)[C@H](CC(C)C)NC(=O)[C@H](CCCCN)NC(=O)[C@@H](NC(=O)[C@H](Cc1ccc(O)cc1)NC(=O)[C@H](CC(N)=O)NC(=O)[C@H](CC(=O)O)NC(=O)[C@@H](NC(=O)[C@H](Cc1ccccc1)NC(=O)[C@@H](NC(=O)[C@H](C)NC(=O)[C@H](CC(=O)O)NC(=O)[C@H](CO)NC(=O)[C@H](Cc1c[nH]cn1)NC(C)=O)C(C)C)[C@@H](C)O)[C@@H](C)O)C(=O)N[C@@H](C)C(=O)N[C@@H](C)C(=O)N[C@@H](CCCCN)C(=O)N[C@H]1CCCCNC(=O)C[C@@H](C(=O)N[C@@H](CC(C)C)C(=O)N[C@@H](CCCCN)C(=O)N[C@@H](CCCCN)C(=O)N[C@@H](C)C(=O)N[C@@H](C)C(=O)N[C@@H](C)C(N)=O)NC(=O)[C@H](CC(N)=O)NC(=O)[C@H](CC(C)C)NC(=O)[C@H](Cc2ccc(O)cc2)NC1=O [SEQ ID NO:69, Ac-[Lys^12,Nle^17,Ala^19,Asp^25,Leu^26,Lys^27,28,Ala^29-31]-VIP cyclo (Lys^21 →Asp^25)] (Ac-HSDAVFTDNYTKLRKQ[Nle]AAKKYLNDLKKAAA-NH2; lactam 21-25) | 0.04 |
